Our source for the mass density and viscosity values is the NIST ThermoML archive (doi:10.1021/je0501890).

Broadly, the mass density is the mass of a sample divided by its volume. Broadly, the viscosity is the resistance of a fluid to flow.

± gives the expanded uncertainty stated by the source.

The conditions of this data set: 298.15 K; 101.33 kPa; Liquid.
Take `CC(Cl)(Cl)Cl` [1,1,1-trichloroethane]: the mass density is 1329.55 ± 1.1 kg/m3 and the viscosity stood at 0.789 ± 0.011 mPa·s.
For `ClC(Cl)C(Cl)Cl` [1,1,2,2-tetrachloroethane], the mass density came out at 1586.65 ± 1.6 kg/m3 and the viscosity was 1.431 ± 0.019 mPa·s.
Regarding `ClCCCl` [1,2-dichloroethane], the mass density is on record as 1245.64 ± 0.92 kg/m3 and the viscosity is 0.776 ± 0.011 mPa·s.
For `CCCCCCCO` [heptan-1-ol], the mass density amounted to 818.48 ± 0.68 kg/m3 and the viscosity came to 5.818 ± 0.079 mPa·s.
`ClC(Cl)=C(Cl)Cl` [tetrachloroethene]: the mass density amounted to 1613.2 ± 1.6 kg/m3 and the viscosity was 0.839 ± 0.012 mPa·s.
As to `ClC=C(Cl)Cl` [trichloroethene], the mass density is 1455.65 ± 1.3 kg/m3 and the viscosity is given as 0.536 ± 0.008 mPa·s.
